Data reported in the supplement of paper PMC13207355.

Tests used:
Conditions in all cases: exposure time: 72 h
[1] = system: E13 (patient-derived glioblastoma stem cells of classical subtype); test: surviving fraction (nuclei count normalised to DMSO); higher = more cells surviving (less toxic)
[2] = system: E21 (patient-derived glioblastoma stem cells of mesenchymal subtype); test: as above
[3] = system: E28 (patient-derived glioblastoma stem cells of classical subtype); test: as above
[4] = system: E31 (patient-derived glioblastoma stem cells of proneural subtype); test: as above
[5] = system: E34 (patient-derived glioblastoma stem cells of proneural subtype); test: as above
[6] = system: E57 (patient-derived glioblastoma stem cells of mesenchymal subtype); test: as above
[7] = system: FT3469 (normal neural stem cell line); test: as above
[8] = system: E13; test: phenotypic distance (Euclidean, principal components) from DMSO controls (arbitrary units); higher = stronger morphological change
[9] = system: E21; test: as above
[10] = system: E28; test: as above
[11] = system: E31; test: as above
[12] = system: E34; test: as above
[13] = system: E57; test: as above
[14] = system: FT3469; test: as above
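Wherever phenotypic distance (Euclidean, principal components) from DMSO controls is given: cell Painting imaging in 384-well plates, CellProfiler features reduced to at least 20 principal components, Euclidean distance versus same-plate DMSO vehicle wells (0.1% v/v), median over six images per well.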
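Wherever surviving fraction (nuclei count normalised to DMSO) is given: nuclei counted by high-content imaging of Hoechst-stained cells in laminin-coated 384-well plates, relative to 0.1% DMSO vehicle wells, with staurosporine as cell-death control.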

CCN(CC)Cc1ccc(C(=O)N(CCc2ccccc2OC)[C@@H]2CCNC2)cc1
Conditions	phenotypic distance	surviving fraction
[1], 4.1 nM	–	1.08
[1], 12.3 nM	–	0.868
[1], 37 nM	–	0.939
[1], 111.1 nM	–	0.916
[1], 333.3 nM	–	0.929
[1], 1000 nM	–	0.865
[1], 3000 nM	–	0.251
[2], 4.1 nM	–	0.952
[2], 12.3 nM	–	0.993
[2], 37 nM	–	1
[2], 111.1 nM	–	0.952
[2], 333.3 nM	–	0.919
[2], 1000 nM	–	0.996
[2], 3000 nM	–	0.663
[3], 4.1 nM	–	0.904
[3], 12.3 nM	–	1.11
[3], 37 nM	–	1.04
[3], 111.1 nM	–	1.12
[3], 333.3 nM	–	1.03
[3], 1000 nM	–	1.13
[3], 3000 nM	–	0.601
[4], 4.1 nM	–	1.06
[4], 12.3 nM	–	1.02
[4], 37 nM	–	1.01
[4], 111.1 nM	–	1.19
[4], 333.3 nM	–	0.914
[4], 1000 nM	–	1.11
[4], 3000 nM	–	0.62
[5], 4.1 nM	–	0.806
[5], 12.3 nM	–	1
[5], 37 nM	–	0.941
[5], 111.1 nM	–	1.12
[5], 333.3 nM	–	1.05
[5], 1000 nM	–	0.786
[5], 3000 nM	–	0.859
[6], 4.1 nM	–	1.16
[6], 12.3 nM	–	1.03
[6], 37 nM	–	1.08
[6], 111.1 nM	–	1.03
[6], 333.3 nM	–	1.06
[6], 1000 nM	–	1.05
[6], 3000 nM	–	0.433
[7], 4.1 nM	–	0.944
[7], 12.3 nM	–	1.04
[7], 37 nM	–	0.955
[7], 111.1 nM	–	1.11
[7], 333.3 nM	–	1.21
[7], 1000 nM	–	1.35
[7], 3000 nM	–	1.18
[8], 4.1 nM	0.886	–
[8], 12.3 nM	0.664	–
[8], 37 nM	0.732	–
[8], 111.1 nM	0.746	–
[8], 333.3 nM	0.975	–
[8], 1000 nM	0.586	–
[8], 3000 nM	6.33	–
[9], 4.1 nM	0.354	–
[9], 12.3 nM	0.793	–
[9], 37 nM	0.496	–
[9], 111.1 nM	0.901	–
[9], 333.3 nM	4.65	–
[9], 1000 nM	0.624	–
[9], 3000 nM	4.48	–
[10], 4.1 nM	0.583	–
[10], 12.3 nM	0.51	–
[10], 37 nM	0.826	–
[10], 111.1 nM	0.771	–
[10], 333.3 nM	0.874	–
[10], 1000 nM	0.721	–
[10], 3000 nM	4.84	–
[11], 4.1 nM	0.43	–
[11], 12.3 nM	0.532	–
[11], 37 nM	0.762	–
[11], 111.1 nM	0.583	–
[11], 333.3 nM	0.607	–
[11], 1000 nM	1.18	–
[11], 3000 nM	5.34	–
[12], 4.1 nM	0.768	–
[12], 12.3 nM	0.429	–
[12], 37 nM	0.97	–
[12], 111.1 nM	1.09	–
[12], 333.3 nM	1.04	–
[12], 1000 nM	0.887	–
[12], 3000 nM	1.55	–
[13], 4.1 nM	0.619	–
[13], 12.3 nM	0.993	–
[13], 37 nM	0.517	–
[13], 111.1 nM	0.737	–
[13], 333.3 nM	0.532	–
[13], 1000 nM	0.717	–
[13], 3000 nM	7.97	–
[14], 4.1 nM	0.348	–
[14], 12.3 nM	0.837	–
[14], 37 nM	0.511	–
[14], 111.1 nM	0.773	–
[14], 333.3 nM	0.915	–
[14], 1000 nM	1.23	–
[14], 3000 nM	2.24	–

CC[n+]1c(/C=C/C=C2/N(C)c3ccccc3C2(C)C)sc2ccccc21
Conditions	phenotypic distance	surviving fraction
[1], 4.1 nM	–	0.616
[1], 12.3 nM	–	0.567
[1], 37 nM	–	0.47
[1], 111.1 nM	–	0.362
[1], 333.3 nM	–	0.403
[1], 1000 nM	–	0.361
[1], 3000 nM	–	0.381
[2], 4.1 nM	–	0.792
[2], 12.3 nM	–	0.825
[2], 37 nM	–	0.652
[2], 111.1 nM	–	0.54
[2], 333.3 nM	–	0.471
[2], 1000 nM	–	0.462
[2], 3000 nM	–	0.445
[3], 4.1 nM	–	0.916
[3], 12.3 nM	–	0.86
[3], 37 nM	–	0.707
[3], 111.1 nM	–	0.596
[3], 333.3 nM	–	0.429
[3], 1000 nM	–	0.42
[3], 3000 nM	–	0.307
[4], 4.1 nM	–	1.03
[4], 12.3 nM	–	0.703
[4], 37 nM	–	0.714
[4], 111.1 nM	–	0.446
[4], 333.3 nM	–	0.21
[4], 1000 nM	–	0.229
[4], 3000 nM	–	0.277
[5], 4.1 nM	–	0.967
[5], 12.3 nM	–	0.902
[5], 37 nM	–	0.834
[5], 111.1 nM	–	0.572
[5], 333.3 nM	–	0.552
[5], 1000 nM	–	0.591
[5], 3000 nM	–	0.516
[6], 4.1 nM	–	0.878
[6], 12.3 nM	–	0.881
[6], 37 nM	–	0.793
[6], 111.1 nM	–	0.614
[6], 333.3 nM	–	0.337
[6], 1000 nM	–	0.324
[6], 3000 nM	–	0.294
[7], 4.1 nM	–	0.855
[7], 12.3 nM	–	0.668
[7], 37 nM	–	0.696
[7], 111.1 nM	–	0.627
[7], 333.3 nM	–	0.645
[7], 1000 nM	–	0.622
[7], 3000 nM	–	0.578
[8], 4.1 nM	1.39	–
[8], 12.3 nM	1.38	–
[8], 37 nM	2.78	–
[8], 111.1 nM	3.54	–
[8], 333.3 nM	3.71	–
[8], 1000 nM	3.71	–
[8], 3000 nM	3.71	–
[9], 4.1 nM	1.08	–
[9], 12.3 nM	1.6	–
[9], 37 nM	2.31	–
[9], 111.1 nM	3.28	–
[9], 333.3 nM	3.93	–
[9], 1000 nM	3.44	–
[9], 3000 nM	2.74	–
[10], 4.1 nM	0.748	–
[10], 12.3 nM	0.775	–
[10], 37 nM	1.34	–
[10], 111.1 nM	1.61	–
[10], 333.3 nM	3.13	–
[10], 1000 nM	2.8	–
[10], 3000 nM	5.04	–
[11], 4.1 nM	2.01	–
[11], 12.3 nM	1.15	–
[11], 37 nM	1.51	–
[11], 111.1 nM	1.16	–
[11], 333.3 nM	3.28	–
[11], 1000 nM	4.43	–
[11], 3000 nM	3.86	–
[12], 4.1 nM	1.1	–
[12], 12.3 nM	1.65	–
[12], 37 nM	1.13	–
[12], 111.1 nM	2.37	–
[12], 333.3 nM	2.3	–
[12], 1000 nM	2.55	–
[12], 3000 nM	3.35	–
[13], 4.1 nM	1.08	–
[13], 12.3 nM	0.887	–
[13], 37 nM	1.53	–
[13], 111.1 nM	2.52	–
[13], 333.3 nM	6.37	–
[13], 1000 nM	5.7	–
[13], 3000 nM	7.93	–
[14], 4.1 nM	1.31	–
[14], 12.3 nM	1.56	–
[14], 37 nM	1.69	–
[14], 111.1 nM	1.86	–
[14], 333.3 nM	1.62	–
[14], 1000 nM	3.78	–
[14], 3000 nM	3.43	–

COc1cc2c(cc1-c1c(C)noc1C)ncc1[nH]c(=O)n([C@H](C)c3ccccn3)c12
Conditions	phenotypic distance	surviving fraction
[1], 4.1 nM	–	0.96
[1], 12.3 nM	–	0.821
[1], 37 nM	–	0.885
[1], 111.1 nM	–	0.757
[1], 333.3 nM	–	0.79
[1], 1000 nM	–	0.562
[1], 3000 nM	–	0.473
[2], 4.1 nM	–	0.942
[2], 12.3 nM	–	1.05
[2], 37 nM	–	0.96
[2], 111.1 nM	–	0.873
[2], 333.3 nM	–	0.78
[2], 1000 nM	–	0.567
[2], 3000 nM	–	0.391
[3], 4.1 nM	–	1.05
[3], 12.3 nM	–	0.934
[3], 37 nM	–	1.14
[3], 111.1 nM	–	0.933
[3], 333.3 nM	–	0.976
[3], 1000 nM	–	0.652
[3], 3000 nM	–	0.782
[4], 4.1 nM	–	1.12
[4], 12.3 nM	–	0.852
[4], 37 nM	–	1.18
[4], 111.1 nM	–	0.997
[4], 333.3 nM	–	1.22
[4], 1000 nM	–	0.817
[4], 3000 nM	–	0.628
[5], 4.1 nM	–	0.897
[5], 12.3 nM	–	1.11
[5], 37 nM	–	0.994
[5], 111.1 nM	–	0.972
[5], 333.3 nM	–	1.03
[5], 1000 nM	–	0.882
[5], 3000 nM	–	0.683
[6], 4.1 nM	–	1.04
[6], 12.3 nM	–	0.964
[6], 37 nM	–	1.14
[6], 111.1 nM	–	1.08
[6], 333.3 nM	–	0.915
[6], 1000 nM	–	0.653
[6], 3000 nM	–	0.533
[7], 4.1 nM	–	0.954
[7], 12.3 nM	–	0.984
[7], 37 nM	–	0.981
[7], 111.1 nM	–	0.987
[7], 333.3 nM	–	0.837
[7], 1000 nM	–	0.73
[7], 3000 nM	–	0.654
[8], 4.1 nM	0.723	–
[8], 12.3 nM	0.923	–
[8], 37 nM	3.5	–
[8], 111.1 nM	1.73	–
[8], 333.3 nM	2.84	–
[8], 1000 nM	3.74	–
[8], 3000 nM	3.72	–
[9], 4.1 nM	0.956	–
[9], 12.3 nM	0.64	–
[9], 37 nM	0.943	–
[9], 111.1 nM	1.42	–
[9], 333.3 nM	2.79	–
[9], 1000 nM	4.44	–
[9], 3000 nM	6.05	–
[10], 4.1 nM	0.949	–
[10], 12.3 nM	0.901	–
[10], 37 nM	0.621	–
[10], 111.1 nM	1.03	–
[10], 333.3 nM	1.35	–
[10], 1000 nM	1.72	–
[10], 3000 nM	1.77	–
[11], 4.1 nM	0.332	–
[11], 12.3 nM	0.436	–
[11], 37 nM	0.51	–
[11], 111.1 nM	0.757	–
[11], 333.3 nM	0.725	–
[11], 1000 nM	1.98	–
[11], 3000 nM	2.07	–
[12], 4.1 nM	1.02	–
[12], 12.3 nM	0.609	–
[12], 37 nM	0.687	–
[12], 111.1 nM	1.15	–
[12], 333.3 nM	1.46	–
[12], 1000 nM	1.79	–
[12], 3000 nM	2.96	–
[13], 4.1 nM	4.06	–
[13], 12.3 nM	7.45	–
[13], 37 nM	0.734	–
[13], 111.1 nM	1.05	–
[13], 333.3 nM	1.91	–
[13], 1000 nM	3.16	–
[13], 3000 nM	3.48	–
[14], 4.1 nM	1.21	–
[14], 12.3 nM	1.17	–
[14], 37 nM	1.25	–
[14], 111.1 nM	1.2	–
[14], 333.3 nM	1.04	–
[14], 1000 nM	1.53	–
[14], 3000 nM	3.06	–
